Reference: US8551958B2, “Galactosylated pro-drugs of non-steroidal anti-inflammatories with improved pharmacokinetic characteristics and reduced toxicity of the starting drug” (Stewart Italia Srl, priority 2008, dated 2013)

System: PGE synthase
Assay: Western blot, stomach, PGE synthase protein expression
Type: in vivo, mice
Conditions: ketorolac 10 mg/Kg, ketogal 16.3 mg/Kg, oral, 3, 5 and 7 days
From the text: Animals were sacrificed and then liver, stomach and kidney were collected in glass tubes and analysed histologically and biochemically.

## O=C(c1ccccc1)c1ccc2n1CC[C@@H]2C(=O)OCC1O[C@H](O)C(O)C(O)[C@H]1O (mixture of isomers) [Ketogal, ketorolac-D-galactos-6′-yl ester]
  Gastric PGE synthase protein expression: not inhibited
